Values of other authors, collected in patent US20240239832A1, “A PROCESS FOR THE PREPARATION OF N4-HYDROXYCYTIDINE AND ITS DERIVATIVES” (priority 2021, published 2024).

Legend:
[1] = tested on: acute respiratory syndrome coronavirus (SARS-CoV); settings: read-out: IC50, inhibition of replication of SARS-CoV
[2] = tested on: remdesivir-resistant strains of the model CoV mouse hepatitis virus (MHV); settings: infected DBT cells
[3] = tested on: Venezuelan equine encephalitis virus (VEEV) TC-83; settings: read-out: EC50, reduction of viral titers of VEEV TC-83
SARS-CoV-2 = settings: Vero cells; read-out: IC50, inhibition of replication of SARS-CoV-2
[4] = tested on: Middle East respiratory syndrome coronavirus (MERS-CoV); settings: read-out: IC50, inhibition of replication of MERS-CoV

In the case of `O=c1nc(NO)ccn1[C@@H]1O[C@H](CO)[C@@H](O)[C@H]1O` [EIDD-1931, 1-(3,4-dihydroxy-5-(hydroxymethyl)tetrahydrofuran-2-yl)-4-(hydroxyamino)pyrimidin-2(1H)-one], the IC50 [1] is given as 100 nM, the “reduction of viral titers of remdesivir-resistant MHV” value [2] is given as “reduces viral titers” and the EC50 [3] is given as 426 nM. For the same compound, the IC50 (SARS-CoV-2) was 300 nM and the IC50 [4] was 150 nM.
